Assay: xn = mol fraction of the nth substance listed
Details: Fluid (supercritical or subcritical phases), Vibrating tube method

c1ccc2ccccc2c1 [naphthalene] + O=C=O
Details | mass density [kg/m3]
328.08 K, 11734 kPa, x1 = 0.0065 | 526.75
328.08 K, 11815 kPa, x1 = 0.0065 | 533.03
328.08 K, 11937 kPa, x1 = 0.0065 | 541.87
328.08 K, 12028 kPa, x1 = 0.0065 | 548.44
328.08 K, 12127 kPa, x1 = 0.0065 | 555.07
328.08 K, 12334 kPa, x1 = 0.0065 | 568.49
328.08 K, 12646 kPa, x1 = 0.0065 | 586.46
328.08 K, 13208 kPa, x1 = 0.0065 | 613.74
328.08 K, 13824 kPa, x1 = 0.0065 | 638.32
328.08 K, 14520 kPa, x1 = 0.0065 | 661.29
328.08 K, 15410 kPa, x1 = 0.0065 | 685.64
328.08 K, 16319 kPa, x1 = 0.0065 | 706.24
328.08 K, 17226 kPa, x1 = 0.0065 | 723.77
328.08 K, 18128 kPa, x1 = 0.0065 | 739.05
328.08 K, 19046 kPa, x1 = 0.0065 | 752.91
328.08 K, 20020 kPa, x1 = 0.0065 | 766.16
328.08 K, 21002 kPa, x1 = 0.0065 | 778.22
328.08 K, 21995 kPa, x1 = 0.0065 | 789.31
328.08 K, 22871 kPa, x1 = 0.0065 | 798.48
328.08 K, 23424 kPa, x1 = 0.0065 | 803.93
328.1 K, 10952 kPa, x1 = 0.0038 | 442.37
328.1 K, 11010 kPa, x1 = 0.0038 | 448.13
328.1 K, 11054 kPa, x1 = 0.0038 | 452.8
328.1 K, 11219 kPa, x1 = 0.0038 | 468.8
328.1 K, 11363 kPa, x1 = 0.0038 | 482.43
328.1 K, 11517 kPa, x1 = 0.0038 | 495.77
328.1 K, 11649 kPa, x1 = 0.0038 | 507.25
328.1 K, 11832 kPa, x1 = 0.0038 | 521.74
328.1 K, 11972 kPa, x1 = 0.0038 | 532.31
328.1 K, 12088 kPa, x1 = 0.0038 | 540.71
328.1 K, 12322 kPa, x1 = 0.0038 | 556.51
328.1 K, 12538 kPa, x1 = 0.0038 | 569.79
328.1 K, 12706 kPa, x1 = 0.0038 | 579.47
328.1 K, 12941 kPa, x1 = 0.0038 | 591.84
328.1 K, 13117 kPa, x1 = 0.0038 | 600.49
328.1 K, 13376 kPa, x1 = 0.0038 | 612.23
328.1 K, 13618 kPa, x1 = 0.0038 | 622.37
328.1 K, 13925 kPa, x1 = 0.0038 | 634.21
328.1 K, 14240 kPa, x1 = 0.0038 | 645.33
328.1 K, 14511 kPa, x1 = 0.0038 | 654.12
328.1 K, 14850 kPa, x1 = 0.0038 | 664.35
328.1 K, 15299 kPa, x1 = 0.0038 | 676.78
328.1 K, 15816 kPa, x1 = 0.0038 | 689.62
328.1 K, 16314 kPa, x1 = 0.0038 | 700.83
328.1 K, 16845 kPa, x1 = 0.0038 | 711.78
328.1 K, 17403 kPa, x1 = 0.0038 | 722.35
328.1 K, 18014 kPa, x1 = 0.0038 | 732.96
328.1 K, 18738 kPa, x1 = 0.0038 | 744.46
328.1 K, 19499 kPa, x1 = 0.0038 | 755.49
328.1 K, 20377 kPa, x1 = 0.0038 | 767.2
328.1 K, 21134 kPa, x1 = 0.0038 | 776.5
328.1 K, 22132 kPa, x1 = 0.0038 | 787.85
328.1 K, 23017 kPa, x1 = 0.0038 | 797.14
328.1 K, 24029 kPa, x1 = 0.0038 | 806.95
328.1 K, 25024 kPa, x1 = 0.0038 | 815.98
328.11 K, 15028 kPa, x1 = 0.0214 | 725.95
328.11 K, 15923 kPa, x1 = 0.0214 | 742.34
328.11 K, 17035 kPa, x1 = 0.0214 | 759.59
328.11 K, 18008 kPa, x1 = 0.0214 | 773.1
328.11 K, 19015 kPa, x1 = 0.0214 | 785.68
328.11 K, 20044 kPa, x1 = 0.0214 | 797.24
328.11 K, 21022 kPa, x1 = 0.0214 | 807.22
328.11 K, 22000 kPa, x1 = 0.0214 | 816.43
328.11 K, 23011 kPa, x1 = 0.0214 | 825.23
328.11 K, 24023 kPa, x1 = 0.0214 | 833.49
332.93 K, 18103 kPa, x1 = 0.0198 | 740.17
332.93 K, 19004 kPa, x1 = 0.0198 | 753.43
332.93 K, 20061 kPa, x1 = 0.0198 | 767.37
332.93 K, 21067 kPa, x1 = 0.0198 | 779.34
332.93 K, 22050 kPa, x1 = 0.0198 | 789.99
332.93 K, 23026 kPa, x1 = 0.0198 | 799.71
332.93 K, 23949 kPa, x1 = 0.0198 | 808.29
332.93 K, 24971 kPa, x1 = 0.0198 | 817.26
332.95 K, 12055 kPa, x1 = 0.0049 | 468.83
332.95 K, 13050 kPa, x1 = 0.0049 | 535.86
332.95 K, 14011 kPa, x1 = 0.0049 | 584.76
332.95 K, 14979 kPa, x1 = 0.0049 | 622.27
332.95 K, 16026 kPa, x1 = 0.0049 | 654.27
332.95 K, 17024 kPa, x1 = 0.0049 | 679.08
332.95 K, 18017 kPa, x1 = 0.0049 | 699.78
332.95 K, 18994 kPa, x1 = 0.0049 | 717.43
332.95 K, 20008 kPa, x1 = 0.0049 | 733.55
332.95 K, 21018 kPa, x1 = 0.0049 | 747.87
332.95 K, 22004 kPa, x1 = 0.0049 | 760.51
332.95 K, 23003 kPa, x1 = 0.0049 | 772.24
332.95 K, 24035 kPa, x1 = 0.0049 | 783.38
332.96 K, 13066 kPa, x1 = 0.0093 | 562.4
332.96 K, 14010 kPa, x1 = 0.0093 | 607.19
332.96 K, 14033 kPa, x1 = 0.0144 | 623.67
332.96 K, 15035 kPa, x1 = 0.0144 | 657.01
332.96 K, 15044 kPa, x1 = 0.0093 | 643.85
332.96 K, 15076 kPa, x1 = 0.0173 | 670.77
332.96 K, 16046 kPa, x1 = 0.0093 | 671.79
332.96 K, 16056 kPa, x1 = 0.0144 | 683.98
332.96 K, 16081 kPa, x1 = 0.0173 | 695.5
332.96 K, 17019 kPa, x1 = 0.0144 | 704.86
332.96 K, 17024 kPa, x1 = 0.0173 | 714.84
332.96 K, 17026 kPa, x1 = 0.0093 | 694.34
332.96 K, 17996 kPa, x1 = 0.0173 | 731.97
332.96 K, 18009 kPa, x1 = 0.0093 | 713.47
332.96 K, 18013 kPa, x1 = 0.0144 | 723.3
332.96 K, 18019 kPa, x1 = 0.0235 | 741.5
332.96 K, 19018 kPa, x1 = 0.0235 | 756.06
332.96 K, 19028 kPa, x1 = 0.0144 | 739.71
332.96 K, 19030 kPa, x1 = 0.0093 | 730.7
332.96 K, 19068 kPa, x1 = 0.0173 | 748.38
332.96 K, 19996 kPa, x1 = 0.0173 | 761.05
332.96 K, 20018 kPa, x1 = 0.0144 | 753.83
332.96 K, 20030 kPa, x1 = 0.0093 | 745.57
332.96 K, 20031 kPa, x1 = 0.0235 | 769.21
332.96 K, 20990 kPa, x1 = 0.0144 | 766.28
332.96 K, 21000 kPa, x1 = 0.0235 | 780.59
332.96 K, 21004 kPa, x1 = 0.0093 | 758.59
332.96 K, 21018 kPa, x1 = 0.0173 | 773.69
332.96 K, 21972 kPa, x1 = 0.0235 | 791.04
332.96 K, 21996 kPa, x1 = 0.0173 | 784.65
332.96 K, 22030 kPa, x1 = 0.0144 | 778.43
332.96 K, 22033 kPa, x1 = 0.0093 | 771.07
332.96 K, 22991 kPa, x1 = 0.0173 | 794.89
332.96 K, 22996 kPa, x1 = 0.0235 | 801.19
332.96 K, 23002 kPa, x1 = 0.0093 | 781.81
332.96 K, 23017 kPa, x1 = 0.0144 | 789
332.96 K, 23986 kPa, x1 = 0.0235 | 810.27
332.96 K, 23990 kPa, x1 = 0.0093 | 791.9
332.96 K, 23999 kPa, x1 = 0.0144 | 798.72
332.96 K, 24019 kPa, x1 = 0.0173 | 804.7
332.96 K, 24677 kPa, x1 = 0.0173 | 810.61
332.96 K, 24809 kPa, x1 = 0.0235 | 817.39
332.96 K, 24940 kPa, x1 = 0.0144 | 807.41
333 K, 12451 kPa, x1 = 0.0065 | 503.55
333 K, 13033 kPa, x1 = 0.0065 | 540.53
333 K, 13760 kPa, x1 = 0.0065 | 578.33
333 K, 14541 kPa, x1 = 0.0065 | 610.99
333 K, 15426 kPa, x1 = 0.0065 | 640.78
333 K, 16333 kPa, x1 = 0.0065 | 665.58
333 K, 17231 kPa, x1 = 0.0065 | 686.41
333 K, 18146 kPa, x1 = 0.0065 | 704.71
333 K, 19018 kPa, x1 = 0.0065 | 720.04
333 K, 20017 kPa, x1 = 0.0065 | 735.62
333 K, 21002 kPa, x1 = 0.0065 | 749.43
333 K, 22012 kPa, x1 = 0.0065 | 762.16
333 K, 23025 kPa, x1 = 0.0065 | 773.85
333 K, 24004 kPa, x1 = 0.0065 | 784.3
333 K, 25022 kPa, x1 = 0.0065 | 794.34
333.02 K, 12620 kPa, x1 = 0.0038 | 505.57
333.02 K, 12810 kPa, x1 = 0.0038 | 517.8
333.02 K, 12997 kPa, x1 = 0.0038 | 529.34
333.02 K, 13183 kPa, x1 = 0.0038 | 540.11
333.02 K, 13406 kPa, x1 = 0.0038 | 552.35
333.02 K, 13640 kPa, x1 = 0.0038 | 564.51
333.02 K, 13893 kPa, x1 = 0.0038 | 576.62
333.02 K, 14134 kPa, x1 = 0.0038 | 587.16
333.02 K, 14390 kPa, x1 = 0.0038 | 597.75
333.02 K, 14768 kPa, x1 = 0.0038 | 612.29
333.02 K, 15159 kPa, x1 = 0.0038 | 625.81
333.02 K, 15535 kPa, x1 = 0.0038 | 637.78
333.02 K, 16027 kPa, x1 = 0.0038 | 652.03
333.02 K, 16469 kPa, x1 = 0.0038 | 663.57
333.02 K, 17018 kPa, x1 = 0.0038 | 676.71
333.02 K, 17622 kPa, x1 = 0.0038 | 689.78
333.02 K, 18197 kPa, x1 = 0.0038 | 701.13
333.02 K, 18835 kPa, x1 = 0.0038 | 712.75
333.02 K, 19606 kPa, x1 = 0.0038 | 725.55
333.02 K, 20350 kPa, x1 = 0.0038 | 736.76
333.02 K, 21107 kPa, x1 = 0.0038 | 747.32
333.02 K, 22018 kPa, x1 = 0.0038 | 758.99
333.02 K, 22977 kPa, x1 = 0.0038 | 770.32
333.02 K, 23992 kPa, x1 = 0.0038 | 781.31
333.02 K, 25039 kPa, x1 = 0.0038 | 791.79

Reference: the NIST ThermoML archive (doi:10.1016/j.fluid.2005.06.010)
